Converted amounts (≈) assume the structure as drawn.
Legend:
[1] = Human microsomal stability analysis; format: in vitro ADME; conditions: human liver microsomes
HaCaT cells = test: MTS cytotoxicity analysis against human keratinocytes; format: cell-based; conditions: MTS assay, tested at 8, 16, 32, 64 μg/mL
J774 cells = test: MTS cytotoxicity analysis against murine macrophages; format: cell-based; conditions: MTS assay, tested at 8, 16, 32, 64 μg/mL
MRSA USA300 = test: In vivo antibacterial activity in MRSA-infected C. elegans; parameters: species or system Caenorhabditis elegans; conditions: for reduction of the burden of MRSA USA300: C. elegans AU37, 20 μg/mL, 18 hours treatment
[2] = test system: UDP-N-acetylmuramyl pentapeptide in S. aureus NRS107 (RN4220); test: Detection of final soluble cell wall precursor by HPLC/MS; format: cell-based, Staphylococcus aureus; conditions: 10 × MIC, 30 minutes
B. subtilis [3] = test: Bacterial Cytological Profiling; format: cell-based, Bacillus subtilis; conditions: for cell shape (BCP) in media containing MSM: LB-MSM, two hours, 4i 4 × MIC, oxacillin 5×MIC, D-cycloserine 1×MIC
[4] = test system: drug-resistant S. aureus clinical isolates; test: Anti-MRSA activity over the panel of S. aureus clinical isolates; format: cell-based, Staphylococcus aureus; conditions: against both MRSA and VRSA
MRSA USA400 = test: Time-kill assay; conditions: 4 × MIC, MRSA USA400, 37 °C, 24-hour incubation
[5] = test system: MRSA USA400 inside infected murine macrophage (J774) cells; test: Eradication of intracellular MRSA in infected macrophages; conditions: 16 μg/mL, J774 cells infected with MRSA USA400
[6] = test system: S. aureus NRS107 (RN4220); test: microbe, parasite or virus in culture; format: cell-based; conditions: Staphylococcus aureus
VRSA4 = test: MIC/MBC broth microdilution; format: cell-based; conditions: Staphylococcus aureus
VRSA10 = test: MIC/MBC broth microdilution; format: cell-based; conditions: Staphylococcus aureus
B. subtilis [7] = test: MIC against B. subtilis; format: cell-based; conditions: Bacillus subtilis
[8] = pH 7.4, NADPH-Free CLint, without NADPH

CCCCc1ccc(-c2nc(C)c(/C(C)=N/NC(=N)N)s2)cc1 [Compound 1a, reference compound]
microsomal CLint [1, 8]: < 9.6 µL/min/mg

Cc1nc(-c2ccc3ccccc3c2)sc1-c1cnc(NC(=N)N)s1 [Compound 4i, 1-(4′-Methyl-2′-(naphthalen-2-yl)-[5,5′-bithiazol]-2-yl)guanidine]
concentration up to which not toxic (HaCaT cells): 32000 ng/mL | concentration up to which non-toxic (J774 cells): 16000 ng/mL | reduction of the burden of MRSA USA300 (MRSA USA300): approximately 30% | reduction of MRSA burden relative to lead compound 1c and vancomycin (MRSA USA300; C. elegans, 20 μg/mL, 18 hours, same experimental conditions): three | peak of UDP-N-acetylmuramyl pentapeptide (accumulation) [2]: noticeable increase | effect on cells (BCP) (B. subtilis [3]; 5 × MIC, two hours of exposure): lysed | cell shape (BCP) in media containing MSM (B. subtilis [3]): misshapen and formed small bulges | microsomal CLint ([1]; pH 7.4, NADPH-Dependent CLint, with NADPH): 17.3 µL/min/mg | microsomal CLint [1, 8]: < 9.6 µL/min/mg | MBC values relative to MIC values [4]: matched or were two-fold higher | time to completely eliminate MRSA cells (MRSA USA400): four | reduction of MRSA CFU/mL in infected macrophages ([5]; four hours of treatment): unable to reduce

CC(=O)NC[C@H]1CN(c2ccc(N3CCOCC3)c(F)c2)C(=O)O1 [Linezolid]
MIC [6]: 2 µg/mL (≈ 5.93 µM) | MIC (VRSA4): 2 µg/mL (≈ 5.93 µM) | MIC (VRSA10): 2 µg/mL (≈ 5.93 µM)

CN[C@H](CC(C)C)C(=O)N[C@H]1C(=O)N[C@@H](CC(N)=O)C(=O)N[C@H]2C(=O)N[C@H]3C(=O)N[C@H](C(=O)N[C@H](C(=O)O)c4cc(O)cc(O)c4-c4cc3ccc4O)[C@H](O)c3ccc(c(Cl)c3)Oc3cc2cc(c3O[C@@H]2O[C@H](CO)[C@@H](O)[C@H](O)[C@H]2O[C@H]2C[C@](C)(N)[C@H](O)[C@H](C)O2)Oc2ccc(cc2Cl)[C@H]1O [Vancomycin, reference compound]
reduction of the burden of MRSA USA300 (MRSA USA300): low reduction | peak of UDP-N-acetylmuramyl pentapeptide (accumulation) [2]: noticeable increase | reduction of MRSA CFU in infected macrophages ([5]; 24 hours of treatment): not able to reduce

Cc1onc(-c2ccccc2Cl)c1C(=O)N[C@@H]1C(=O)N2[C@@H]1SC(C)(C)[C@@H]2C(=O)O [cloxacillin]
MIC (B. subtilis [7]): 0.47 µg/mL (≈ 1.08 µM)

Cc1onc(-c2ccccc2)c1C(=O)N[C@@H]1C(=O)N2[C@@H]1SC(C)(C)[C@@H]2C(=O)O [oxacillin, reference compound]
cell shape (BCP) in media containing MSM (B. subtilis [3]): large bulges and misshapen cells

N[C@@H]1CONC1=O [ᴅ-cycloserine]
MIC (B. subtilis [7]): 37.5 µg/mL (≈ 367 µM)
